Reference: patent US20050085546A1, “Method of inducing differentiation of dendritic cells” (Council of Scientific & Industrial Research, priority 2003, published 2005)

Assays:
[1] = test system: osteoclast precursors (murine bone marrow cells, M-CSF + RANKL); experiment: In vitro osteoclastogenesis assay (TRAP staining); format: cell-based, Balb/c mice; conditions: for Number of TRAP-positive multinuclear cells/well of 96 well plate (Mean ± SEM) / % inhibition of osteoclast formation: 6 days
Source text: Culture of murine bone marrow cells in the presence of M-CSF and RANKL induces the formation of osteoclasts, which were detected as TRAP-positive cells. […] Values given are the mean±SD of five separate experiments.
For in vitro osteoclastogenesis bone marrow cells were isolated from 5- to 8-wk-old Balb/c mice. Mice were sacrificed by cervical dislocation and femora and tibiae were aseptically removed and dissected free of adherent soft tissues. The bone ends were cut, and the marrow cavity was flushed out with medium MEM from one end of the bone using a sterile 21-gauge needle. The bone marrow suspension was carefully agitated with a plastic Pasteur pipette to obtain a single-cell suspension. The cells were washed twice and resuspended (10^6 cells/ml) in aMEM containing 10% FBS. […] After 24 h, nonadherent cells were harvested and layered on a Ficoll-Hypaque gradient. Cells at the gradient interface were collected, washed and resuspended (5×10^5/ml) in AMEM containing 10% FBS. In this study, we called these stromal cell-free, M-CSF-dependent, nonadherent cells as osteoclast precursors. These osteoclast precursors were added to 96-well plates (100 μl/well) containing plastic coverslips. Each well received further 100 μl of medium containing M-CSF (30 ng/ml), RANKL (30 ng/ml) without or with various concentrations of purified compound. Cultures were fed every 2-3 days and after incubation for 6 days osteoclast formation was evaluated by tartrate-resistant acid phosphatase (TRAP) staining. The number of TRAP-positive multinucleated cells (MNCs) containing 3 or more nuclei was scored.
TRAP is preferentially expressed at high levels in osteoclast and is considered, especially in the mouse, to be an osteoclast marker. Cytochemical staining for TRAP is widely used for identifying the osteoclasts in vivo and in vitro. It is claimed to be specific for osteoclasts in bone. After incubation, cells on cover slips were washed in PBS, fixed in 10% formalin for 10 min and stained for acid phosphatase in the presence of 0.05 M sodium tartrate. The substrate used was napthol AS-BI phosphate. Only those cells that were strongly TRAP-positive (dark red) counted by light microscopy.

[2] = test system: osteoclast precursors (murine bone marrow cells, M-CSF + RANKL); experiment: In vitro osteoclastogenesis assay (TRAP staining); format: cell-based, Balb/c mice; conditions: M-CSF + RANKL + compound 5.0 μg/ml, 6 days
BM leukocyte precursors [3] = experiment: Viability of stimulated BM leukocyte precursor cultures; format: cell-based, BALB/c mouse; parameters: Viability, % of Viable cells: reference not given here
Method: (§1) The fine suspension obtained above was transferred into a 50 ml sterile centrifuge tube and centrifuged for 10 minutes at 1200 rpm. […] The pellets were washed using HBSS wash buffer and then centrifuged again for 10 minutes at 1200 rpm. This process was repeated for one more time. […] This suspension was then finally passed through a MACS (Magnetic Activated Cell Sorting) column to get essentially and predominately leukocyte precursors.

BM leukocyte precursors [4] = experiment: Differentiation of dendritic cells from bone marrow leukocyte precursors; cell surface marker expression by flow cytometry; format: cell-based, BALB/c mouse; conditions: for differentiation of dendritic cells (in words): from BM precursors
Method: Cells were stained for the surface levels of indicated markers. Plates A-D represent surface levels of CD80, CD54, CD11c and H-2D (MHC class 1), respectively. […] The Green line represents staining of stimulated cells while the black line depicts staining of unstimulated cells.
as §1
In order to evaluate the upregulation of various cell surface markers associated with Dendritic cells, flow cytometry on the cells stimulated with GM-CSF or the compound was carried out using fluorescent labeled antibodies to various molecules (CD11c, I-A^d, CD80, CD86, H2-D^d, CD54, CD40).
The hind limbs of the mouse were removed carefully and placed in a Petri dish with HBSS (Hanks Balanced Saline Solution) wash buffer. The tibias and femurs were cleared of all surrounding and attached tissues. This was followed by chipping the ends of bones. The bone marrow was flushed out by injecting HBSS solution into the bone with the help of a hypodermal syringe (No. 26 gauge). The bone marrow was finally made into a fine suspension by syringing in and out of the fluid several times using an 18 gauge syringe needle.

[5] = M-CSF + RANKL + compound 0.5 μg/ml
[6] = M-CSF + RANKL + compound 1.5 μg/ml
[7] = M-CSF + RANKL + compound 3.0 μg/ml
[8] = M-CSF + RANKL + compound 5.0 μg/ml
[9] = Table B, concentration not given
[10] = Table A, 15 ng/ml GM-CSF or 50 micro gram per ml synthetic compound, 48 h

## O=C(O)CC[C@H](NS(=O)(=O)O)C(=O)O [compound 3, L-glutamyl-N-sulphonic acid]
[1]; [5]
  Number of TRAP-positive multinuclear cells/well of 96 well plate (Mean ± SEM): 154.67 ± 8.43 cells/well
[1]; [6]
  Number of TRAP-positive multinuclear cells/well of 96 well plate (Mean ± SEM): 150.33 ± 8.82 cells/well
[1]; [7]
  % inhibition of osteoclast formation: 23.23%
  Number of TRAP-positive multinuclear cells/well of 96 well plate (Mean ± SEM): 112.67 ± 8.63 cells/well
[1]; [8]
  % inhibition of osteoclast formation: 25.08%
[2]
  Number of TRAP-positive multinuclear cells/well of 96 well plate (Mean ± SEM): 110.00 ± 6.72 cells/well
BM leukocyte precursors [3]; [9]
  Viability, % of Viable cells: 115%

## GM-CSF: the growth factor that is conventionally used to generate DCs in vitro
BM leukocyte precursors [4]; [10]
  Fold increase in Relative MFI over unstimulated control, CD11c: 5.0 fold
  Fold increase in Relative MFI over unstimulated control, CD54: 4.0 fold
  Fold increase in Relative MFI over unstimulated control, CD80: 3.3 fold
  Fold increase in Relative MFI over unstimulated control, H-2D^d: 2.0 fold
BM leukocyte precursors [4]; [9]
  Fold increase in Relative MFI over unstimulated control, CD11c: 5.0 fold
  Fold increase in Relative MFI over unstimulated control, CD54: 4.0 fold
  Fold increase in Relative MFI over unstimulated control, CD80: 3.3 fold
  Fold increase in Relative MFI over unstimulated control, H-2D^d: 2.0 fold
BM leukocyte precursors [3]; [10]
  Viability, % of Viable cells: 180%
BM leukocyte precursors [3]; [9]
  Viability, % of Viable cells: 180%

## O=C([O-])CC[C@H](NS(=O)(=O)[O-])C(=O)[O-].O=C([O-])CC[C@H](NS(=O)(=O)[O-])C(=O)[O-].[Ca+2].[Ca+2].[Ca+2] [compound 1, L-glutamyl-N-sulphonic acid, Ca salt]
BM leukocyte precursors [4]; BM leukocyte precursors incubated with different concentrations
  concentration of maximum up regulation of cell surface densities of CD11c, CD80, CD54: 200 mM
BM leukocyte precursors [4]; listed as Compound I
  differentiation of dendritic cells (in words): Induces Differentiation of Dendritic Cells
BM leukocyte precursors [4]; listed as the compound
  differentiation of dendritic cells (in words): induces the differentiation of DCs from BM precursors
[1]; [5]
  % inhibition of osteoclast formation: 21.01%
  Number of TRAP-positive multinuclear cells/well of 96 well plate (Mean ± SEM): 109.67 ± 9.79 cells/well
[1]; [6]
  % inhibition of osteoclast formation: 62.19%
  Number of TRAP-positive multinuclear cells/well of 96 well plate (Mean ± SEM): 52.17 ± 6.42 cells/well
[1]; [7]
  % inhibition of osteoclast formation: 89.36%
  Number of TRAP-positive multinuclear cells/well of 96 well plate (Mean ± SEM): 14.67 ± 1.98 cells/well
[1]; [8]
  % inhibition of osteoclast formation: 97.94%
[1]; increasing dose
  inhibition in the number of osteoclast cells generated (in words): dose dependent inhibition
[2]
  Number of TRAP-positive multinuclear cells/well of 96 well plate (Mean ± SEM): 2.83 ± 1.05 cells/well
BM leukocyte precursors [3]; 200 mM, 48 h
  viability of the cultures at the end of the incubation period: more than 99%
BM leukocyte precursors [3]; 50 micro gram per ml, 48 h
  viability of the cultures at the end of the incubation period: > 99%
